The values below come from patent US8268823B2, “Medical use of triazine derivatives” (University of Greenwich, priority 2006, dated 2012).

Data set [1] deals with T1, hERG potassium channel (Homo sapiens, UniProt Q12809). Briefly: inhibition of binding of [3H]astemizole to cell membranes expressing hERG. As to conditions: for selectivity ratio: human, cell membranes expressing hERG, probe [3H]astemizole. In general terms: Block of hERG is tested as a sign of cardiac risk.
Data set [2] concerns the target T1, hERG potassium channel. Kind of data set: in vitro.
The test system of data set [3] is sodium channel. Briefly: veratrine-evoked uptake of [14C]guanidine into rat forebrain synaptosomes ([14C]guanidine flux). The class given is biochemical. The protocol:
The screening strategy is designed to select compounds with appropriate sodium channel blocking activity and low side effect liability. To this end all compounds are processed through the primary sodium channel assay (veratrine-evoked uptake of [^14C]guanidine into rat forebrain synaptosomes) and IC50 values computed from generated concentration-effect curves.
Synaptosomes (heavy and light mitochondrial fraction containing synaptosomes) were prepared by transferring the forebrain (of known wet weight) to a glass Potter vessel to which 9 volumes ice-cold 0.25M sucrose had been added and homogenising, using a teflon pestle, by 8 ‘up and down strokes’ of a Braun Potter S motor driven homogeniser set to 900 rpm. The resulting homogenate was centrifuged at 1036×g at 4° for 10 min and the supernatant collected. The remaining pellet was resuspended, as above, in fresh ice-cold 0.25M sucrose and the centrifugation step repeated. The supernatant fractions were pooled and centrifuged at 40,000×g (average) at 4° for 15 min and the resulting pellet resuspended in the appropriate assay buffer at a concentration of 20-25 mg wet weight per ml appropriate assay buffer.
Both assays were carried out using 14 ml polypropylene test tubes to which a range of concentrations of the compounds under test were added.
Compounds under test were pre-incubated for 10 min at 30° in incubation buffer (50 mM pH 7.4 HEPES (adjusted to pH 7.4 with Tris base), 130 mM choline chloride, 5.5 mM D-glucose, 0.8 mm MgSO4 and 5 mM KCl) containing 7.5 mg original wet weight of tissue and 100 μg veratrine HCl in a final volume of 0.5 ml. […] A further 2×5 ml of ice-cold wash buffer was added to each tube and the vacuum filtration step repeated. The GF/C glass fibre filters were transferred to minivials and 4 ml Picofluor^40 liquid scintillant added using a Brandel™ deposit/dispense system. Radioactivity was measured using a Beckman Liquid Scintillation Counter.
(§1) Data are presented as mean±sem of number of experiments indicated in brackets.

Data set [4] has as its target T2, DiHydroFolate Reductase (DHFR) (Rattus norvegicus, UniProt Q920D2).
T2 construct: from tissue; host or cells: rat liver homogenate supernatant (47,500 x g)
T2 sequence (Q920D2 1-187): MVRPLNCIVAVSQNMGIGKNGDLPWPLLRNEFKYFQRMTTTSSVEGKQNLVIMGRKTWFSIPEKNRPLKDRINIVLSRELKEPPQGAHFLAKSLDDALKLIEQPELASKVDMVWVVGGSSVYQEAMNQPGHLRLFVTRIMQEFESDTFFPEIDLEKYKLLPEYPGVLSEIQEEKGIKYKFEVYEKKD
Briefly: inhibition of binding of [3H]methotrexate to rat liver homogenate supernatant. Here is the method: All steps were carried out at 4° (or on ice). Freshly dissected rat liver was dissected into 0.25M ice-cold Sucrose and subsequently homogenised (U-turrax) in 50 mM pH 6.0 phosphate buffer (10 ml/g tissue) containing 15 mM Dithiothreitol. The resulting homogenate was centrifuged @ 47,500×g for 20 min and supernatant (filtered through cotton wool to remove fatty lumps) stored @-80° before use (Rothenberg et al).
The binding reaction was stopped by the addition of 50 μl of a charcoal suspension (consisting of charcoal, Bovine Serum Albumin and Dextran present in a weight ratio of 100:4:1 suspended in 50 mM pH 6.0 phosphate buffer. Samples were vortexed, allowed to stand for 2 minutes and charcoal was precipitated by microcentrifugation @ full speed for 5 min. Aliquots of clear supernatant were transferred to counting vials containing liquid scintillant for measurement of radioactivity using Liquid Scintillation Spectroscopy.
Percentage inhibition values were calculated by comparison to this value.
as §1

The subject of data set [5] is sodium channel. The class given is binding, rat.
[6] abbreviates: Table 3, rat forebrain synaptosomes, read-out: [14C]guanidine flux Mean (IC50: μM).
Where [7] appears, read: Table 5, read-out: [14C]guanidine flux IC50.
[8] abbreviates: read-out: [3H]methotrexate binding Inhibition (% @ assay conc'n), assay concentration 10 μM.
Where [9] appears, read: read-out: [3H]methotrexate binding Inhibition (% @ assay conc'n), assay concentration 99 μM.

Where two headings read alike, the source gives them in different places.

T1 sequence (Q12809 whole entry): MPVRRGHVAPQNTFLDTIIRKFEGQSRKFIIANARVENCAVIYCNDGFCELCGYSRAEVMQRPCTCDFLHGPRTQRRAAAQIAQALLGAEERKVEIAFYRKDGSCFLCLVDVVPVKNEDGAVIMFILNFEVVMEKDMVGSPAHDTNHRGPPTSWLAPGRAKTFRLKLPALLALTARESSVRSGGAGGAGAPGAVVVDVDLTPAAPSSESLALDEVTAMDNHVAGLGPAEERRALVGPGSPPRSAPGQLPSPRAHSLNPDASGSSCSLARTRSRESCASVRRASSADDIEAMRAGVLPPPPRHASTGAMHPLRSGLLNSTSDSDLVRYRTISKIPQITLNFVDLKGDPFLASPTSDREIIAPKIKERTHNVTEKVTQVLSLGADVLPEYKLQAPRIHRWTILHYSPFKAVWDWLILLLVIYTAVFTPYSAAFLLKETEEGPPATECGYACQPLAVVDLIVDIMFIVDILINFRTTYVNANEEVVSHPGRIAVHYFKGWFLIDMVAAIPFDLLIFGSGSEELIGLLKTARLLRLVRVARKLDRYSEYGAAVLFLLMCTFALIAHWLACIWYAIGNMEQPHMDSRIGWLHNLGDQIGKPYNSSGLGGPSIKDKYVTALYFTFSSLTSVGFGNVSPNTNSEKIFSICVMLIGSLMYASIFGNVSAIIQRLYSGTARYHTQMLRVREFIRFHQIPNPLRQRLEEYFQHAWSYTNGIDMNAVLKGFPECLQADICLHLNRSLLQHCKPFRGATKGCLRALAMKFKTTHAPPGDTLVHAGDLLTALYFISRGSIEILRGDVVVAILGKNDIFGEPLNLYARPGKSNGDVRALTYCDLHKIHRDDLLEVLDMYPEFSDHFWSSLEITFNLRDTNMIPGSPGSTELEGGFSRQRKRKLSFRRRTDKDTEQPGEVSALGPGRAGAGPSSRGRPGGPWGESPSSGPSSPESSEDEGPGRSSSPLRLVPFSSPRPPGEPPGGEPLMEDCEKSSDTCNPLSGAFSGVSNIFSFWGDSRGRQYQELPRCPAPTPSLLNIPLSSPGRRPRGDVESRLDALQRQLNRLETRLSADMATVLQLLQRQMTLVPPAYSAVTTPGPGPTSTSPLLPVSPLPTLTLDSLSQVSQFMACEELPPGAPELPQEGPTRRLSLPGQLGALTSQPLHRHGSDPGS

What is called IC50 is the concentration that inhibits the measured activity by half. In general, inhibition refers to the change of the read-out against control, counted positive when it falls. With `N=c1nc(N)c(-c2cccc(Cl)c2Cl)nn1Cc1cccc(C(F)(F)F)c1` [Example 24, 5(3)-Amino-6-(2,3-dichlorophenyl)-2,3(2,5)-dihydro-3(5)-imino-2-(3-trifluoromethyl)phenylmethyl-1,2,4-triazine], the concentration for half-maximal inhibition (IC50) in data set [1] is 0.6 µM; in data set [3] (setting [6]), 4 µM; in data set [3] (setting [7]), 4 µM. For the same molecule, in data set [1], the selectivity ratio was found to be 0.2. In addition, the inhibition at 10 µM in data set [2] came to 94%.

In the case of `COc1ccccc1Cn1nc(-c2cccc(Cl)c2Cl)c(N)nc1=N` [Example 17, 5(3)-Amino-6-(2,3-dichlorophenyl)-2,3(2,5)-dihydro-3(5)-imino-2-(2-methoxy)phenylmethyl-1,2,4-triazine], the IC50 came out at 1.9 µM in data set [1], 4.6 µM in data set [3] (setting [6]) and 4.6 µM in data set [3] (setting [7]). Moreover, the selectivity ratio in data set [1] stood at 0.4. Moreover, the inhibition at 10 µM is 84% in data set [2] and -4% in data set [4] (setting [8]). Moreover, the inhibition at 198 µM in data set [4] (read-out: [3H]methotrexate binding Inhibition (% @ assay conc'n), assay concentration 198 μM) is -3%.

`N=c1nc(N)c(-c2cccc(Cl)c2Cl)nn1Cc1ccccc1F` [Example 14, 5(3)-Amino-6-(2,3-dichlorophenyl)-2,3(2,5)-dihydro-3(5)-imino-2-(2-fluoro)phenylmethyl-1,2,4-triazine]: the figures for the IC50 in data set [1], in data set [3] (setting [6]) and in data set [3] (setting [7]) were 2.5 µM, 2.8 µM and 2.8 µM, respectively. For the same molecule, the selectivity ratio in data set [1] was 0.9. Further, the inhibition at 10 µM in data set [2] was 80%; in data set [4] (setting [8]), -1%. Also, the inhibition at 99 µM in data set [4] (setting [9]) is -4%.

In the case of `N=c1nc(N)c(-c2cccc(Cl)c2Cl)nn1Cc1cccc(F)c1` [Example 15, 5(3)-Amino-6-(2,3-dichlorophenyl)-2,3(2,5)-dihydro-3(5)-imino-2-(3-fluoro)phenylmethyl-1,2,4-triazine], the concentration for half-maximal inhibition (IC50) amounted to 2 µM in data set [1], 3.9 µM in data set [3] (setting [6]) and 3.9 µM in data set [3] (setting [7]). Besides, the selectivity ratio in data set [1] worked out at 0.5. In addition, the inhibition at 10 µM is 83% in data set [2] and -4% in data set [4] (setting [8]). Also, the inhibition at 99 µM in data set [4] (setting [9]) is -5%.

Regarding `N=c1nc(N)c(-c2cccc(Cl)c2Cl)nn1Cc1ccc(F)cc1` [Example 16, 5(3)-Amino-6-(2,3-dichlorophenyl)-2,3(2,5)-dihydro-3(5)-imino-2-(4-fluoro)phenylmethyl-1,2,4-triazine], in data set [4] (setting [8]), the inhibition at 10 µM is -3%. The inhibition at 99 µM in data set [4] (setting [9]) was -3%. In addition, the 50% inhibitory concentration (IC50) in data set [3] (setting [6]) stood at 5.1 µM.

As to `Nc1nc(N)c(-c2cc(Cl)cc(Cl)c2Cl)c(CF)n1` [BW202W92, reference compound], the “[3H]methotrexate binding Inhibition (% @ assay conc'n)” value in data set [4] (assay concentration 10 μM) is −1%; in data set [4] (assay concentration 99 μM), 29%. For the same molecule, the IC50 in data set [3] (setting [6]) is 2 µM; in data set [3] (Table 8, read-out: IC50 (μM) (uptake of [14C]guanidine)), 2.5 µM; in data set [5] (Table 1, synaptosomes, mean ± sem (n), read-out: [3H]BTX-B binding (synaptosomes), mean IC50), 4.5 ± 0.4 µM; in data set [5] (Table 4, tissue prep'n Homogenate, read-out: [3H]BTX-B binding Mean (IC50: μM)), 4.1 µM; in data set [5] (Table 4, tissue prep'n Synaptosomes, read-out: [3H]BTX-B binding Mean (IC50: μM)), 4.5 µM. In addition, the “pIC50 (uptake of [14C]guanidine)” value in data set [3] (Table 8) stood at 5.61 ± 0.04. In data set [3] (Table 8, slope), the “Hill (uptake of [14C]guanidine)” value was found to be 1.07.

As for `N=c1nc(N)c(-c2cccc(Cl)c2Cl)nn1Cc1ccccc1C(F)(F)F` [Example 23, 5(3)-Amino-6-(2,3-dichlorophenyl)-2,3(2,5)-dihydro-3(5)-imino-2-(2-trifluoromethyl)phenylmethyl-1,2,4-triazine], the IC50 came out at 1.1 µM in data set [1], 4.4 µM in data set [3] (setting [6]) and 4.4 µM in data set [3] (setting [7]). Moreover, the selectivity ratio in data set [1] turned out to be 0.3. In addition, the inhibition at 10 µM in data set [2] came to 90%.

As for `N=c1nc(N)c(-c2cccc(Cl)c2Cl)nn1Cc1cccc(Cl)c1` [Example 20, 5(3)-Amino-6-(2,3-dichlorophenyl)-2,3(2,5)-dihydro-3(5)-imino-2-(3-chloro)phenylmethyl-1,2,4-triazine], the “[3H]methotrexate binding Inhibition (% @ assay conc'n)” value was −4% in data set [4] (assay concentration 9 μM) and −7% in data set [4] (assay concentration 99 μM). In addition, the IC50 in data set [3] (setting [6]) turned out to be 3.5 µM.
